Data: patent US9833497B2, “Human originated EGF domain proteins and use of the same” (CHENGDU SOURCEBIO LIMITED-LIABILITY COMPANY, priority 2013, dated 2017)

What was measured:
Type in all cases: cell-based
[1] = tested on: Enterobacter cloacae; experiment: MIC against Gram-negative bacteria: Enterobacter cloacae; details: for MIC / MIC (μg/mL) E. cloacae: E. cloacae
Method in brief: (§1)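 First, colonies from LB agar were grown in LB at 37° C, 185 rpm, to McFarland turbidity 0.5, then centrifuged and resuspended in fresh LB. Next, wells received 5×10^5 CFU/mL bacteria plus two-fold serially diluted EGF domain protein (triplicate). Finally, plates were shaken at 37° C and the no-growth concentration taken as MIC.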

[2] = tested on: Klebsiella pneumonia; experiment: MIC against Gram-negative bacteria: Klebsiella pneumonia; details: for MIC / MIC (μg/mL) K. pneumonia: K. pneumonia
Method in brief: as §1

[3] = tested on: Proteus mirabilis; experiment: MIC against Gram-negative bacteria: Proteus mirabilis; details: for MIC / MIC (μg/mL) P. mirabilis: P. mirabilis
Method in brief: as §1

[4] = tested on: Citrobacter diversus; experiment: MIC against Gram-negative bacteria: Citrobacter diversus; details: for MIC / MIC (μg/mL) C. diversus: C. diversus
Method in brief: as §1

[5] = tested on: E. coli BL21; experiment: MIC against Gram-negative bacteria: E. coli BL21; details: for MIC / MIC (μg/mL) E. coli BL21: E. coli BL21
Method in brief: as §1

[6] = tested on: Aeromonas hydrophila; experiment: MIC against Gram-negative bacteria: Aeromonas hydrophila; details: for MIC / MIC (μg/mL) A. hydrophila: A. hydrophila
Method in brief: as §1

[7] = tested on: Pseudomonas aeruginosa; experiment: MIC against Gram-negative bacteria: Pseudomonas aeruginosa; details: for MIC / MIC (μg/mL) P. aeruginosa: P. aeruginosa
Method in brief: as §1

[8] = tested on: E. coli DH5α; experiment: Antibacterial activity: MIC and growth curve against E. coli DH5α in 96-well plate; details: minimal inhibitory concentration against E. coli DH5α; 96-well plate, 5×10^5 CFU/mL, 37° C., judged after 8 h
Method in brief: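 MIC taken as lowest protein level with no bacterial growth, tracked by A600 every 30 min during 37 °C, 175 rpm culture. Two-fold protein series 50-12.5 μg/mL final, triplicate wells, against 5×10^5 CFU/mL of LB-washed mid-log cells.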

[9] = tested on: Moraxella catarrhalis; experiment: MIC against Gram-negative bacteria: Moraxella catarrhalis; details: for MIC / MIC (μg/mL) M. catarrhalis: M. catarrhalis
Method in brief: as §1

[10] = tested on: Serratia marcescens; experiment: MIC against Gram-negative bacteria: Serratia marcescens; details: for MIC / MIC (μg/mL) S. marcescens: S. marcescens
Method in brief: as §1

[11] = tested on: Proteus vulgaris; experiment: MIC against Gram-negative bacteria: Proteus vulgaris; details: for MIC / MIC (μg/mL) P. vulgaris: P. vulgaris
Method in brief: as §1

[12] = 10 h cultivation at 37° C., 5×10^5 CFU/mL
[13] = 96-well plate, 5×10^5 CFU/mL, 37° C., 10 h
[14] = 10 h cultivation at 37° C., 5×10^5 CFU/mL, two-fold serial dilution

## PRT421 (DQDECLLLPGELCQHLCINTVGSYHCACFPGFSLQDDGRTCR; listed as Homo sapiens)
[1]; [12]
  MIC: 12.5 µg/mL
[2]; [12]
  MIC: 50 µg/mL
[3]; [12]
  MIC: 25 µg/mL
[4]; [12]
  MIC: 12.5 µg/mL
[5]; [12]
  MIC: 50 µg/mL
[6]; [12]
  MIC: 50 µg/mL
[7]; [12]
  MIC: 12.5 µg/mL
[8]
  MIC: 12.5 µg/mL
[9]; [12]
  MIC: 50 µg/mL
[10]; [12]
  MIC: 25 µg/mL
[11]; [12]
  MIC: 12.5 µg/mL

## PRT1013 (LEDPCPPSFCSKRGRCHIQASGRPQCSCMPGWTGEQCQ; listed as Homo sapiens)
[1]; 10 h cultivation at 37° C.
  MIC: 12.5 µg/mL
[2]; 10 h cultivation at 37° C.
  MIC: 25 µg/mL
[3]; 10 h cultivation at 37° C.
  MIC: 12.5 µg/mL
[4]; 10 h cultivation at 37° C.
  MIC: 12.5 µg/mL
[5]; 10 h cultivation at 37° C.
  MIC: 12.5 µg/mL
[6]; 10 h cultivation at 37° C.
  MIC: 12.5 µg/mL
[7]; 10 h cultivation at 37° C.
  MIC: 12.5 µg/mL
[8]
  MIC: 12.5 µg/mL
[9]; 10 h cultivation at 37° C.
  MIC: 25 µg/mL
[10]; 10 h cultivation at 37° C.
  MIC: 50 µg/mL
[11]; 10 h cultivation at 37° C.
  MIC: 25 µg/mL

## PRT660 (DHDECQDLACENGECVNTEGSFHCFCSPPLTLDLSQQRCM; listed as Homo sapiens)
[1]; [13]
  MIC E. cloacae: 50 µg/mL
[2]; [13]
  MIC K. pneumonia: 12.5 µg/mL
[3]; [13]
  MIC P. mirabilis: 25 µg/mL
[4]; [13]
  MIC C. diversus: 50 µg/mL
[5]; [13]
  MIC E. coli BL21: 50 µg/mL
[6]; [13]
  MIC A. hydrophila: 12.5 µg/mL
[7]; [13]
  MIC P. aeruginosa: 12.5 µg/mL
[8]
  MIC: 12.5 µg/mL
[9]; [13]
  MIC M. catarrhalis: 12.5 µg/mL
[10]; [13]
  MIC S. marcescens: 12.5 µg/mL
[11]; [13]
  MIC P. vulgaris: 50 µg/mL

## PRT190 (ECPLNYCRNGGTCVVEKNGPMCRCRQGWKGNRC; listed as Homo sapiens)
[1]; [12]
  MIC (μg/mL) E. cloacae: 12.5 µg/mL
[2]; [12]
  MIC (μg/mL) K. pneumonia: 25 µg/mL
[3]; [12]
  MIC (μg/mL) P. mirabilis: 12.5 µg/mL
[4]; [12]
  MIC (μg/mL) C. diversus: 12.5 µg/mL
[5]; [12]
  MIC (μg/mL) E. coli BL21: 25 µg/mL
[6]; [12]
  MIC (μg/mL) A. hydrophila: 25 µg/mL
[7]; [12]
  MIC (μg/mL) P. aeruginosa: 50 µg/mL
[8]
  MIC: 12.5 µg/mL
[9]; [12]
  MIC (μg/mL) M. catarrhalis: 12.5 µg/mL
[10]; [12]
  MIC (μg/mL) S. marcescens: 12.5 µg/mL
[11]; [12]
  MIC (μg/mL) P. vulgaris: 12.5 µg/mL

## PRT1128 (VANSCTPNPCENDGVCTDIGGDFRCRCPAGFIDKTCS; listed as Homo sapiens)
[1]; [14]
  MIC E. cloacae: 12.5 µg/mL
[2]; [14]
  MIC K. pneumonia: 50 µg/mL
[3]; [14]
  MIC P. mirabilis: 12.5 µg/mL
[4]; [14]
  MIC C. diversus: 12.5 µg/mL
[5]; [14]
  MIC E. coli BL21: 50 µg/mL
[6]; [14]
  MIC A. hydrophila: 50 µg/mL
[7]; [14]
  MIC P. aeruginosa: 12.5 µg/mL
[8]
  MIC: 12.5 µg/mL
[9]; [14]
  MIC M. catarrhalis: 50 µg/mL
[10]; [14]
  MIC S. marcescens: 12.5 µg/mL
[11]; [14]
  MIC P. vulgaris: 50 µg/mL

## PRT439 (DINECQESSPCHQRCFNAIGSFHCGCEPGYQLKGRKCM; listed as Homo sapiens)
[1]; [12]
  MIC: 25 µg/mL
[2]; [12]
  MIC: 50 µg/mL
[3]; [12]
  MIC: 12.5 µg/mL
[4]; [12]
  MIC: 25 µg/mL
[5]; [12]
  MIC: 12.5 µg/mL
[6]; [12]
  MIC: 12.5 µg/mL
[7]; [12]
  MIC: 25 µg/mL
[8]
  MIC: 25 µg/mL
[9]; [12]
  MIC: 50 µg/mL
[10]; [12]
  MIC: 12.5 µg/mL
[11]; [12]
  MIC: 50 µg/mL

## PRT647 (DVDECLRPDVCGEGHCVNTVGAFRCEYCDSGYRMTQRGRCE; listed as Homo sapiens)
[1]; [13]
  MIC E. cloacae: 12.5 µg/mL
[2]; [13]
  MIC K. pneumonia: 50 µg/mL
[3]; [13]
  MIC P. mirabilis: 12.5 µg/mL
[4]; [13]
  MIC C. diversus: 12.5 µg/mL
[5]; [13]
  MIC E. coli BL21: 12.5 µg/mL
[6]; [13]
  MIC A. hydrophila: 50 µg/mL
[7]; [13]
  MIC P. aeruginosa: 25 µg/mL
[8]
  MIC: 25 µg/mL
[9]; [13]
  MIC M. catarrhalis: 50 µg/mL
[10]; [13]
  MIC S. marcescens: 25 µg/mL
[11]; [13]
  MIC P. vulgaris: 50 µg/mL

## PRT562 (CQCHNNIDTTDPEACDKETGRCLKCLYHTEGEHCQFCRFGYYGDALQQDCRK; listed as Homo sapiens)
[1]; [13]
  MIC against E. cloacae: 50 µg/mL
[2]; [13]
  MIC against K. pneumonia: 25 µg/mL
[3]; [13]
  MIC against P. mirabilis: 12.5 µg/mL
[4]; [13]
  MIC against C. diversus: 50 µg/mL
[5]; [13]
  MIC against E. coli BL21: 25 µg/mL
[6]; [13]
  MIC against A. hydrophila: 25 µg/mL
[7]; [13]
  MIC against P. aeruginosa: 50 µg/mL
[8]
  MIC: 50 µg/mL
[9]; [13]
  MIC against M. catarrhalis: 25 µg/mL
[10]; [13]
  MIC against S. marcescens: 50 µg/mL
[11]; [13]
  MIC against P. vulgaris: 25 µg/mL

## PRT175 (CEHAPCHNGATCHERGHRYVCECARGYGGPNC; listed as Homo sapiens)
[1]; [12]
  MIC (μg/mL) E. cloacae: 12.5 µg/mL
[2]; [12]
  MIC (μg/mL) K. pneumonia: 12.5 µg/mL
[3]; [12]
  MIC (μg/mL) P. mirabilis: 12.5 µg/mL
[4]; [12]
  MIC (μg/mL) C. diversus: 12.5 µg/mL
[5]; [12]
  MIC (μg/mL) E. coli BL21: 12.5 µg/mL
[6]; [12]
  MIC (μg/mL) A. hydrophila: 25 µg/mL
[7]; [12]
  MIC (μg/mL) P. aeruginosa: 12.5 µg/mL
[8]
  MIC: 12.5 µg/mL
[9]; [12]
  MIC (μg/mL) M. catarrhalis: 25 µg/mL
[10]; [12]
  MIC (μg/mL) S. marcescens: 12.5 µg/mL
[11]; [12]
  MIC (μg/mL) P. vulgaris: 25 µg/mL

## PRT680 (DVNECAEGSPCSPGWCENLPGSFRCTCAQGYAPAPDGRSCL; listed as Homo sapiens)
[1]; [13]
  MIC E. cloacae: 25 µg/mL
[2]; [13]
  MIC K. pneumonia: 50 µg/mL
[3]; [13]
  MIC P. mirabilis: 12.5 µg/mL
[4]; [13]
  MIC C. diversus: 25 µg/mL
[5]; [13]
  MIC E. coli BL21: 25 µg/mL
[6]; [13]
  MIC A. hydrophila: 12.5 µg/mL
[7]; [13]
  MIC P. aeruginosa: 25 µg/mL
[8]
  MIC: 12.5 µg/mL
[9]; [13]
  MIC M. catarrhalis: 50 µg/mL
[10]; [13]
  MIC S. marcescens: 25 µg/mL
[11]; [13]
  MIC P. vulgaris: 50 µg/mL

## PRT191 (PCLRKYKDFCIHGECKYVKELRAPSCICHPGYHGERCH; listed as Homo sapiens)
[1]; [12]
  MIC (μg/mL) E. cloacae: 25 µg/mL
[2]; [12]
  MIC (μg/mL) K. pneumonia: 12.5 µg/mL
[3]; [12]
  MIC (μg/mL) P. mirabilis: 12.5 µg/mL
[4]; [12]
  MIC (μg/mL) C. diversus: 25 µg/mL
[5]; [12]
  MIC (μg/mL) E. coli BL21: 12.5 µg/mL
[6]; [12]
  MIC (μg/mL) A. hydrophila: 12.5 µg/mL
[7]; [12]
  MIC (μg/mL) P. aeruginosa: 12.5 µg/mL
[8]
  MIC: 12.5 µg/mL
[9]; [12]
  MIC (μg/mL) M. catarrhalis: 12.5 µg/mL
[10]; [12]
  MIC (μg/mL) S. marcescens: 12.5 µg/mL
[11]; [12]
  MIC (μg/mL) P. vulgaris: 50 µg/mL
